The record followed here is PubChem BioAssay AID602411 (Southern Research Specialized Biocontainment Screening …, 2012).

The test system of the assay is VEEV Trinidad donkey, virus titer reduction. Nature of the assay: log virus titer change, VEEV Trinidad donkey strain, secondary screen at 10 µM (AID 602411). The settings on record: active compounds read low.

As for `CN1CCN(Cc2nc3ccc([N+](=O)[O-])cc3c(=O)n2-c2ccccc2F)CC1`, the log virus titer change is less than -5.2.
With `CCN1CCN(Cc2nc3ccc([N+](=O)[O-])cc3c(=O)n2-c2ccccc2F)CC1`, the log virus titer change is less than -5.5.
